How the values were obtained:
Assay in all cases: relative viability (nuclei count vs DMSO), 5 days (fraction); higher = more cells survive
201T = test system: 201T
Procedure, shortened: (§1)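 For relative viability, nuclei counts in treated wells were divided by those in vehicle wells. Lung cancer cell lines had been pin-tool dosed in 1536-well plates the day after seeding and cultured for 5 days, then fixed and stained in one step (final 0.05% Triton X-100, 1% formaldehyde, 1 ug/ml Hoechst) and imaged at 4×. Doses were one drug alone or a fixed anchor-drug dose plus five library-drug doses (not always all listed) in √10 steps, and values are duplicate-plate medians.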

COR-L 105 = test system: COR-L 105
Procedure, shortened: as §1

COR-L23 = test system: COR-L23
Procedure, shortened: as §1

EKVX = test system: EKVX
Procedure, shortened: as §1

EPLC-272H = test system: EPLC-272H
Procedure, shortened: as §1

H3255 = test system: H3255
Procedure, shortened: as §1

HCC-15 = test system: HCC-15
Procedure, shortened: as §1

HCC-827 = test system: HCC-827
Procedure, shortened: as §1

LCLC-97TM1 = test system: LCLC-97TM1
Procedure, shortened: as §1

NCI-H1395 = test system: NCI-H1395
Procedure, shortened: as §1

NCI-H1650 = test system: NCI-H1650
Procedure, shortened: as §1

NCI-H1651 = test system: NCI-H1651
Procedure, shortened: as §1

NCI-H1792 = test system: NCI-H1792
Procedure, shortened: as §1

NCI-H1915 = test system: NCI-H1915
Procedure, shortened: as §1

NCI-H2023 = test system: NCI-H2023
Procedure, shortened: as §1

NCI-H322M = test system: NCI-H322M
Procedure, shortened: as §1

NCI-H460 = test system: NCI-H460
Procedure, shortened: as §1

NCI-H520 = test system: NCI-H520
Procedure, shortened: as §1

NCI-H596 = test system: NCI-H596
Procedure, shortened: as §1

NCI-H647 = test system: NCI-H647
Procedure, shortened: as §1

SK-MES-1 = test system: SK-MES-1
Procedure, shortened: as §1

C=C1C(=O)O[C@@H](CCCCCCCC)[C@@H]1C(=O)O [C-75] + CC1(C)CCC(c2ccc(Cl)cc2)=C(CN2CCN(c3ccc(C(=O)NS(=O)(=O)c4ccc(N[C@H](CCN5CCOCC5)CSc5ccccc5)c(S(=O)(=O)C(F)(F)F)c4)cc3)CC2)C1 [Navitoclax] (partner 0.5 µM)
relative viability (201T; first compound 0.08 µM): 1.23 | relative viability (201T; first compound 0.253 µM): 1.27 | relative viability (201T; first compound 0.8 µM): 1.23 | relative viability (201T; first compound 2.53 µM): 1.17 | relative viability (201T; first compound 8 µM): 1.21 | relative viability (COR-L 105; first compound 0.08 µM): 0.81 | relative viability (COR-L 105; first compound 0.253 µM): 0.828 | relative viability (COR-L 105; first compound 0.8 µM): 0.573 | relative viability (COR-L 105; first compound 2.53 µM): 0.788 | relative viability (COR-L 105; first compound 8 µM): 0.562 | relative viability (COR-L23; first compound 0.08 µM): 0.966 | relative viability (COR-L23; first compound 0.253 µM): 0.884 | relative viability (COR-L23; first compound 0.8 µM): 0.955 | relative viability (COR-L23; first compound 2.53 µM): 0.989 | relative viability (COR-L23; first compound 8 µM): 0.964 | relative viability (EKVX; first compound 0.08 µM): 0.944 | relative viability (EKVX; first compound 0.253 µM): 0.893 | relative viability (EKVX; first compound 0.8 µM): 0.831 | relative viability (EKVX; first compound 2.53 µM): 0.864 | relative viability (EKVX; first compound 8 µM): 1.03 | relative viability (EPLC-272H; first compound 0.08 µM): 1.22 | relative viability (EPLC-272H; first compound 0.253 µM): 1.03 | relative viability (EPLC-272H; first compound 0.8 µM): 1.21 | relative viability (EPLC-272H; first compound 2.53 µM): 0.856 | relative viability (EPLC-272H; first compound 8 µM): 0.961 | relative viability (H3255; first compound 0.08 µM): 0.565 | relative viability (H3255; first compound 0.253 µM): 0.5 | relative viability (H3255; first compound 0.8 µM): 0.513 | relative viability (H3255; first compound 2.53 µM): 0.466 | relative viability (H3255; first compound 8 µM): 0.577 | relative viability (HCC-15; first compound 0.08 µM): 0.692 | relative viability (HCC-15; first compound 0.253 µM): 0.725 | relative viability (HCC-15; first compound 0.8 µM): 0.686 | relative viability (HCC-15; first compound 2.53 µM): 0.59 | relative viability (HCC-15; first compound 8 µM): 0.733 | relative viability (HCC-827; first compound 0.08 µM): 1.02 | relative viability (HCC-827; first compound 0.253 µM): 0.884 | relative viability (HCC-827; first compound 0.8 µM): 0.952 | relative viability (HCC-827; first compound 2.53 µM): 0.985 | relative viability (HCC-827; first compound 8 µM): 1.04 | relative viability (LCLC-97TM1; first compound 0.08 µM): 0.36 | relative viability (LCLC-97TM1; first compound 0.253 µM): 0.697 | relative viability (LCLC-97TM1; first compound 0.8 µM): 0.357 | relative viability (LCLC-97TM1; first compound 2.53 µM): 0.304 | relative viability (LCLC-97TM1; first compound 8 µM): 0.292 | relative viability (NCI-H1395; first compound 0.08 µM): 1.13 | relative viability (NCI-H1395; first compound 0.253 µM): 1.24 | relative viability (NCI-H1395; first compound 0.8 µM): 0.989 | relative viability (NCI-H1395; first compound 2.53 µM): 0.813 | relative viability (NCI-H1395; first compound 8 µM): 1.26 | relative viability (NCI-H1650; first compound 0.08 µM): 1.22 | relative viability (NCI-H1650; first compound 0.253 µM): 1.36 | relative viability (NCI-H1650; first compound 0.8 µM): 1.22 | relative viability (NCI-H1650; first compound 2.53 µM): 1.36 | relative viability (NCI-H1650; first compound 8 µM): 0.97 | relative viability (NCI-H1651; first compound 0.08 µM): 1.07 | relative viability (NCI-H1651; first compound 0.253 µM): 1.11 | relative viability (NCI-H1651; first compound 0.8 µM): 0.955 | relative viability (NCI-H1651; first compound 2.53 µM): 0.885 | relative viability (NCI-H1651; first compound 8 µM): 0.901 | relative viability (NCI-H1792; first compound 0.08 µM): 0.595 | relative viability (NCI-H1792; first compound 0.253 µM): 0.575 | relative viability (NCI-H1792; first compound 0.8 µM): 0.46 | relative viability (NCI-H1792; first compound 2.53 µM): 0.303 | relative viability (NCI-H1792; first compound 8 µM): 0.59 | relative viability (NCI-H1915; first compound 0.08 µM): 0.818 | relative viability (NCI-H1915; first compound 0.253 µM): 0.785 | relative viability (NCI-H1915; first compound 0.8 µM): 0.774 | relative viability (NCI-H1915; first compound 2.53 µM): 0.386 | relative viability (NCI-H1915; first compound 8 µM): 0.781 | relative viability (NCI-H2023; first compound 0.08 µM): 0.971 | relative viability (NCI-H2023; first compound 0.253 µM): 1.04 | relative viability (NCI-H2023; first compound 0.8 µM): 0.959 | relative viability (NCI-H2023; first compound 2.53 µM): 0.659 | relative viability (NCI-H2023; first compound 8 µM): 0.945 | relative viability (NCI-H322M; first compound 0.08 µM): 1.18 | relative viability (NCI-H322M; first compound 0.253 µM): 1.54 | relative viability (NCI-H322M; first compound 0.8 µM): 1.28 | relative viability (NCI-H322M; first compound 2.53 µM): 1.12 | relative viability (NCI-H322M; first compound 8 µM): 1.29 | relative viability (NCI-H460; first compound 0.08 µM): 1.14 | relative viability (NCI-H460; first compound 0.253 µM): 1.23 | relative viability (NCI-H460; first compound 0.8 µM): 1.04 | relative viability (NCI-H460; first compound 8 µM): 1.08 | relative viability (NCI-H520; first compound 0.08 µM): 1.13 | relative viability (NCI-H520; first compound 0.253 µM): 1.24 | relative viability (NCI-H520; first compound 0.8 µM): 1 | relative viability (NCI-H520; first compound 2.53 µM): 0.837 | relative viability (NCI-H520; first compound 8 µM): 0.82 | relative viability (NCI-H596; first compound 0.08 µM): 0.961 | relative viability (NCI-H596; first compound 0.253 µM): 1.16 | relative viability (NCI-H596; first compound 0.8 µM): 0.901 | relative viability (NCI-H596; first compound 2.53 µM): 0.771 | relative viability (NCI-H596; first compound 8 µM): 0.897 | relative viability (NCI-H647; first compound 0.08 µM): 1.12 | relative viability (NCI-H647; first compound 0.253 µM): 1.05 | relative viability (NCI-H647; first compound 2.53 µM): 0.875 | relative viability (NCI-H647; first compound 8 µM): 0.857 | relative viability (SK-MES-1; first compound 0.08 µM): 1.31 | relative viability (SK-MES-1; first compound 0.253 µM): 1.23 | relative viability (SK-MES-1; first compound 0.8 µM): 1.16 | relative viability (SK-MES-1; first compound 2.53 µM): 1.21 | relative viability (SK-MES-1; first compound 8 µM): 1.17
